From patent US5541163A, “Renin inhibiting N-(2-amino-2-oxoethyl)butanediamide derivatives” (Bio-Mega/Boehringer Ingelheim Research Inc., priority 1993, dated 1996)

Target: T1, human renin (Homo sapiens, UniProt P00797)
T1 construct: A human plasma pool is used as the source of both the substrate (angiotensinogen) and the enzyme (renin); from tissue; host or cells: human plasma pool
T1 sequence (P00797 67-406): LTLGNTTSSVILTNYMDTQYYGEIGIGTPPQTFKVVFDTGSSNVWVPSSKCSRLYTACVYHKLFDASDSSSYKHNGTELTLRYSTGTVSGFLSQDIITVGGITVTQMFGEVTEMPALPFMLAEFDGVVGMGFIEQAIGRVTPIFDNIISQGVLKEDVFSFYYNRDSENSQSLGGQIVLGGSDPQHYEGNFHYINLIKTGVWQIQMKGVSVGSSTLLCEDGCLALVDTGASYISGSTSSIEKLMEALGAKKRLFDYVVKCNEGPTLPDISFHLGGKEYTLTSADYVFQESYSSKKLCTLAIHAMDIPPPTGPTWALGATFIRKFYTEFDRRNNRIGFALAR
Experiment: Plasma renin assay (inhibition of human renin, angiotensin I by RIA)
Type: biochemical
Conditions: human plasma pool, pH 6.0, 2 h incubation at 37°
Experimental: The assay is performed as follows: The test compound (i.e. the inhibitor) is dissolved in dimethylsulfoxide (1 mM stock solution) and diluted with an aqueous buffer solution of 270 mM 2-(N-morpholino)ethanesulfonic acid and 1% human serum albumin (pH 5.85, also containing dimercaprol and 8-hydroxyquinoline sulfate in accordance with the instructions of the RIA kit noted below) to give an assay mixture in which the final dimethylsulfoxide content is 1% (v/v).
A human plasma pool is used as the source of both the substrate (angiotensinogen) and the enzyme (renin). The reaction is initiated by the addition of 50 μL of human plasma pool to 50 μL of various concentrations of inhibitor in the 1% dimethylsulfoxide assay buffer. The plasma renin activity is measured by the amount of angiotensin I generated at pH 6.0 following a 2 h incubation at 37°.
Quantitation of angiotensin I is performed by radioimmunoassay (RIA kit from New England Nuclear-Dupont, Mississauga, ON, Canada). The enzymatic activity of renin is expressed in ng of angiotensin I generated (/mL/2 h). The extent of inhibition of the reaction is determined from the amount of angiotensin I generated in reference to a control prepared without inhibitor. Nonlinear regression analysis is used to calculate the IC50 values, i.e. the molar concentration of the test compound required to cause a 50% inhibition of the enzyme activity.

**Q.** How did the IC50 turn out when `CC(C)C[C@H](O)[C@H](O)[C@H](CC1CCCCC1)NC(=O)[C@@H](CC(=O)N(CC(=O)N(C)C)C[C@@H](C)c1ccccc1)Cc1nccs1` [Compound 40, N^4-[2-(dimethylamino)-2-oxoethyl]-N^4-[2 (S)-phenylpropyl]-N^1-[1(S)-(cyclohexylmethyl)-2(R),3(S)-dihydroxy-5-methylhexyl]-2(S)-(2-thiazolylmethyl)butanediamide] was run?
**A.** The IC50 was 6.7 nM.

**Q.** `CC(C)C[C@H](O)[C@H](O)[C@H](CC1CCCCC1)NC(=O)[C@@H](CC(=O)N(CC(=O)N(C)CCc1ccccn1)Cc1ccccc1)Cc1nccs1` [Compound 41, N^4-benzyl-N^4 -{2-{methyl[2-(2-pyridinyl)ethyl]amino}-2-oxoethyl}-N^1-[1(S)-(cyclohexylmethyl)-2(R),3(S)-dihydroxy-5-methylhexyl]-2(S)-(2-thiazolylmethyl)butanediamide] was tested. Which IC50 did it give?
**A.** The IC50 was 3.5 nM.

**Q.** `C[C@@H](c1ccccc1)N(CC(=O)N(C)C)C(=O)C[C@@H](CC1CC1)C(=O)N[C@@H](CC1CCCCC1)[C@@H](O)[C@@H]1CC(C)(C)N(C)C1=O` [Compound 42, N^4-[2-(dimethylamino)-2-oxoethyl]-N^4-[1(S)-phenylethyl]-N^1-[1(S)-(cyclohexylmethyl)-2(S)-hydroxy-2-(1,5,5-trimethyl-2-oxopyrrolidin-3(S)-yl)ethyl]-2(R)-(cyclopropylmethyl)butanediamide] was tested. Which IC50 did it give?
**A.** Its IC50 is 55 nM.

**Q.** How did the IC50 turn out when `C[C@@H](c1ccccc1)N(CC(=O)N(C)C)C(=O)C[C@@H](Cc1csc(N)n1)C(=O)N[C@@H](CC1CCCCC1)[C@@H](O)[C@@H](O)C1CC1` [Compound 43, N^4-[2-(dimethylamino)-2-oxoethyl]-N^4-[1(S)-phenylethyl]-N^1-[1(S)-(cyclohexylmethyl)-2(R),3(S)-dihydroxy-(3-cyclopropylpropyl)]-2(R)-[(2-amino-4-thiazolyl)methyl]-butanediamide] was run?
**A.** Its IC50 is 6.8 nM.

**Q.** For `C[C@@H](c1ccccc1)N(CC(=O)N(C)C)C(=O)C[C@@H](Cc1csc(N)n1)C(=O)N[C@@H](CC1CCCCC1)[C@@H](O)[C@@H]1CC(C)(C)N(C)C1=O` [Compound 44, N^4-[2-(dimethylamino)-2-oxoethyl]-N^4-[1(S)-phenylethyl]-N^1-[1(S)-(cyclohexylmethyl)-2(S)-hydroxy-2-(1,5,,5-trimethyl-2-oxopyrrolidin-3(S)-yl)ethyl]-2(R)-[(2-amino-4-thiazolyl)methyl]butanediamide], which IC50 is on record?
**A.** The IC50 was 2.4 nM.

**Q.** How did the IC50 turn out when `CC(C)OC(=O)[C@H](O)[C@H](CC1CCCCC1)NC(=O)[C@@H](CC(=O)N(CC(=O)N(C)C)[C@@H](C)c1ccccc1)Cc1csc(N)n1` [Compound 45, N^4-[2-(dimethylamino)-2-oxoethyl]-N^4-[1(S)-phenylethyl]-N^4-[1(S)-(cyclohexylmethyl)-2(R)-hydroxy-3-(1-methylethoxy)-3-oxopropyl]-2(R)-[(2-amino-4-thiazolyl)methyl]-butanediamide] was run?
**A.** The IC50 was 16 nM.

**Q.** `CC(C)C[C@H](O)[C@H](O)[C@H](CC1CCCCC1)NC(=O)[C@@H](CC(=O)N(CC(=O)N(C)CCc1ccccn1)CC1CCCCC1)CC1CC1` [Compound 46, N^4-(cyclohexylmethyl)-N^4 -{2-{methyl-[2-(2-pyridinyl)-ethyl]amino}-2-oxoethyl}-N^1-[1(S)-(cyclohexylmethyl)-2(R),3(S)-dihydroxy-5-methylhexyl]-2(R)-(cyclopropylmethyl)butanediamide] was tested. Which IC50 did it give?
**A.** The IC50 was 12 nM.

**Q.** For `Cc1nc(C[C@H](CC(=O)N(CC(=O)N(C)C)CC2CCCCC2)C(=O)N[C@@H](CC2CCCCC2)[C@@H](O)[C@@H](O)CC(C)C)cs1` [Compound 47, N^4-(cyclohexylmethyl)-N^4-[2-(dimethylamino)-2-oxoethyl]-N^1-[1(S)-(cyclohexylmethyl)-2(R),3(S)-dihydroxy-5-methylhexyl]-2(R)-[(2-methyl-4-thiazolyl)methyl]butanediamide], which IC50 is on record?
**A.** The IC50 was 18.5 nM.

**Q.** With `CC(C)C[C@H](O)[C@H](O)[C@H](CC1CCCCC1)NC(=O)[C@@H](CC(=O)N(CC(=O)N(C)C)CC1CCCCC1)Cc1csc(N)n1` [Compound 48, N^4-(cyclohexylmethyl)-N^4-[2-(dimethylamino)-2-oxoethyl]-N^1-[1(S)-(cyclohexylmethyl)-2(R),3(S)-dihydroxy-5-methylhexyl]-2(R)-[(2-amino-4-thiazolyl)methyl]butanediamide] as the compound, how does the IC50 read?
**A.** Its IC50 is 0.9 nM.

**Q.** `CC(C)C[C@H](O)[C@H](O)[C@H](CC1CCCCC1)NC(=O)[C@@H](CC(=O)N(CC(=O)N1CCOCC1)CC1CCCCC1)Cc1csc(N)n1` [Compound 49] was tested. Which IC50 did it give?
**A.** The IC50 was 1.5 nM.

**Q.** With `CC(C)C[C@H](O)[C@H](O)[C@H](CC1CCCCC1)NC(=O)[C@@H](CC(=O)N(CC(=O)N(C)CCc1ccccn1)CC1CCCCC1)Cc1csc(N)n1` [Compound 50, N^4-(cyclohexylmethyl)-N^4 -{2-{methyl-[2-(2-pyridinyl)ethyl]-amino}-2-oxoethyl}-N^1-[1(S)-(cyclohexylmethyl)-2(R),3(S)-dihydroxy-5-methylhexyl]-2(R)-[(2-amino-4-thiazolyl)methyl]butanediamide] as the compound, how does the IC50 read?
**A.** The IC50 was 2.2 nM.

**Q.** For `CC(C)C[C@H](O)[C@H](O)[C@H](CC1CCCCC1)NC(=O)[C@@H](CC(=O)N(CCc1ccccn1)CC(=O)N(C)C)CC1CC1` [Compound 51, N^4-[2-(dimethylamino)-2-oxoethyl]-N^4-[2-(2-pyridinyl)ethyl]-N^1-(1(S)-(cyclohexylmethyl)-2(R),3(S)-dihydroxy-5-methylhexyl]-2(R)-(cyclopropylmethyl)butanediamide], which IC50 is on record?
**A.** The IC50 was 145 nM.

**Q.** `CC(C)C[C@H](O)[C@H](O)[C@H](CC1CCCCC1)NC(=O)[C@@H](CC(=O)N(CC(=O)N(C)C)Cc1ccccc1)Cc1csc(N)n1` [Compound 52, N^4-benzyl-N^1-[2-(dimethylamino)-2-oxoethyl)-N^1-[1(S)-(cyclohexylmethyl)-2(R),3(S)-dihydroxy-5-methylhexyl]-2(R)-[(2-amino-4-thiazolyl)-methyl]butanediamide] was tested. Which IC50 did it give?
**A.** Its IC50 is 3 nM.

**Q.** Which IC50 does the source give for `CC(C)C[C@H](O)[C@H](O)[C@H](CC1CCCCC1)NC(=O)[C@@H](CC(=O)N(CC(=O)N(C)CCc1ccccn1)Cc1ccccc1)Cc1cscn1` [Compound 53, N^4-benzyl-N^4 -{2-{methyl[2-(2-pyridinyl)ethyl]amino}-2-oxoethyl}-N^1-[1(S)-(cyclohexylmethyl)-2(R),3(S)-dihydroxy-5-methylhexyl]-2(R)-(4-thiazolylmethyl)butanediamide] here?
**A.** Its IC50 is 2.5 nM.

**Q.** `CC(C)C[C@H](O)[C@H](O)[C@H](CC1CCCCC1)NC(=O)[C@@H](CC(=O)N(CC(=O)N(C)C)[C@@H](C)c1ccccc1)Cc1nccs1` [Compound 54, N^4-[2-(dimethylamino)-2-oxoethyl]-N^4-[1(S)-phenylethyl]-N^1-[1(S)-(cyclohexylmethyl)-2(R),3(S)-dihydroxy-5-methylhexyl]-2(S)-(2-thiazolylmethyl)butanediamide] was tested. Which IC50 did it give?
**A.** Its IC50 is 4 nM.

**Q.** How did the IC50 turn out when `CC(C)C[C@H](O)[C@H](O)[C@H](CC1CCCCC1)NC(=O)[C@@H](CC(=O)N(CC(=O)N(C)C)CC1CCCCC1)Cc1ccccc1` [Compound 55, N^4-(cyclohexylmethyl)-N^4-[2-(dimethylamino)-2-oxoethyl]-N^1-[1(S)-(cyclohexylmethyl)-2(R),3(S)-dihydroxy-5-methylhexyl]-2(R)-(phenylmethyl)butanediamide] was run?
**A.** The IC50 was 16 nM.

**Q.** For `CC(C)C[C@H](O)[C@H](O)[C@H](CC1CCCCC1)NC(=O)[C@@H](CC(=O)N(CC(=O)N(C)CCc1ccccn1)Cc1ccccc1)Cc1csc(N)n1` [Compound 57, N^4-benzyl-N^4 -{2-{methyl[2-(2-pyridinyl)ethyl]amino}-2-oxoethyl}-N^1-[1(S)-(cyclohexylmethyl)-2(R),3(S)-dihydroxy-5-methylhexyl]-2(R)-[(2-amino-4-thiazolyl)methyl]-butanediamide], which IC50 is on record?
**A.** Its IC50 is 1 nM.

**Q.** `CC(C)C[C@H](O)[C@H](O)[C@H](CC1CCCCC1)NC(=O)[C@@H](CC(=O)N(CC(=O)N(C)C)CC1CCCCC1)Cc1cccnc1` [Compound 58, N^4-(cyclohexylmethyl)-N^4-[2-(dimethylamino)-2-oxoethyl]-N^1-[1(S)-(cyclohexylmethyl)-2(R),3(S)-dihydroxy-5-methylhexyl]-2(R)-(3-pyridinylmethyl)butanediamide] was tested. Which IC50 did it give?
**A.** Its IC50 is 10 nM.

**Q.** Which IC50 does the source give for `CC(C)C[C@H](O)[C@H](O)[C@H](CC1CCCCC1)NC(=O)[C@@H](CC(=O)N(CC(=O)N1CCOCC1)CC1CCCCC1)Cc1cccnc1` [Compound 59, N^4-(cyclohexylmethyl)-N^4-(2-morpholino-2-oxoethyl)-N^1-[1(S)-(cyclohexylmethyl)-2(R),3(S)-dihydroxy-5-methylhexyl]-2(R)-(3-pyridinylmethyl)butanediamide] here?
**A.** The IC50 was 10 nM.

**Q.** `CC(C)C[C@H](O)[C@H](O)[C@H](CC1CCCCC1)NC(=O)[C@@H](CC(=O)N(CCc1ccccc1)CC(=O)N(C)C)Cc1csc(N)n1` [Compound 60, N^4-[2-(dimethylamino)-2-oxoethyl]-N^4-(2-phenylethyl)-N^1-[1(S)-(cyclohexylmethyl)-2(R),3(S)-dihydroxy-5-methylhexyl]-2(R)-[(2-amino-4-thiazolyl)methyl]butanediamide] was tested. Which IC50 did it give?
**A.** Its IC50 is 5 nM.
